This note sets out measurements from patent publication US20070191420A1, “Kinase inhibitors” (Devgen NV, priority 2004, published 2007).

Counter-ions that a name gives are not always drawn. A value given as a limit tells only on which side of the number the result lay.

Test in all cases: Fluorescence polarization (FP) PKC inhibition assay, Protein Kinase C Assay Kit, Red (Invitrogen)
Holding throughout (type): biochemical
Background: Polarisation of emitted light reports the rotation of a fluorescent probe.

One experiment concerns the target T1, PKC epsilon (Homo sapiens, UniProt Q02156).
T1 construct: purchased Invitrogen 6906
T1 sequence (Q02156 1-737): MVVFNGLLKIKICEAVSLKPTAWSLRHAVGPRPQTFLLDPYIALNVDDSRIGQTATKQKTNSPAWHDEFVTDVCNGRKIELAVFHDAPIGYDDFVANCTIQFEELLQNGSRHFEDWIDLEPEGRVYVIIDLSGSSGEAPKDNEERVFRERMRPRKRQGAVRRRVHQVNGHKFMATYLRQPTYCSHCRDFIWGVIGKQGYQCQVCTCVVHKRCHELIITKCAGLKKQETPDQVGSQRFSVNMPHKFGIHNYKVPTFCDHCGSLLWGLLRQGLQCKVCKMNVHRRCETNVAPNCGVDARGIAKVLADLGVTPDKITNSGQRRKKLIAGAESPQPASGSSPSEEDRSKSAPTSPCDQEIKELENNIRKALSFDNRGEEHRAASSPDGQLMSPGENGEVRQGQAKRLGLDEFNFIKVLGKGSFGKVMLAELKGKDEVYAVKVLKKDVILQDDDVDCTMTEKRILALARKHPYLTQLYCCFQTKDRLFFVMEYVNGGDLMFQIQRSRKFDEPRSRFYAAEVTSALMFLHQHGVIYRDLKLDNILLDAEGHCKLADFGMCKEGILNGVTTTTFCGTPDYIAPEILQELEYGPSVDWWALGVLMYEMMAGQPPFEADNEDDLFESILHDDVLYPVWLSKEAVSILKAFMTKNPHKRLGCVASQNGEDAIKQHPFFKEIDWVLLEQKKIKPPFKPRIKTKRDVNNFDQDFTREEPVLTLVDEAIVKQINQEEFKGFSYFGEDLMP
The following applies: enzyme 10 ng/ml, ATP 2.5 μM. The protocol: (§1) The substrate used was […]
(§2) To perform the assay, 2 μl of a solution of the compound to be tested in DMSO (at each concentration) was added to 6 μl of a solution of the enzyme in 10 mM HEPES, 5 mM dithiotreitol, 0.1% Triton X-100, pH 7,4.
(§3) After incubating for 30 minutes at room temperature, 4 μl of a mixture of ATP and the protein substrate in 60 mM HEPES (pH7.4), 15 mM MgCl2, 0.3 mM CaCl2, 0.06% NP40 was added.
(§4) After incubating for 80 minutes at room temperature, 3 μl of a mix solution of 500 mM EDTA (stop solution) and the Rhodamine-based PKC Red Tracer (from the Protein Kinase C Assay Kit) in BGG/phosphate buffer (pH7.4) with 0.02% NaN3 and 0.1% Triton X-100 was added and 5 μl of a the Anti-Phosphoserine antibody (also from the Protein Kinase C Assay Kit) in BGG/phosphate buffer (pH7.4) with 0.02% NaN3.
(§5) The results were fitted to a curve using the XL-Fit algorithm and IC50 values were calculated for each fitted curve, again using the XL-Fit algorithm.

In the next experiment the target is T2, PKC gamma (Homo sapiens, UniProt P05129).
T2 construct: purchased Invitrogen 9343
The following applies: enzyme 20 ng/ml, ATP 2.5 μM. As to the method: as §1, §2, §3, §4, §5

A further experiment concerns the target T3, PKC theta (Homo sapiens, UniProt Q04759).
T3 construct: purchased Invitrogen 7101
Particulars: enzyme 20 ng/ml, ATP 2.5 μM. As to the method: as §1, §2, §3, §4, §5

In a further experiment the target is T4, PKC zeta (Homo sapiens, UniProt Q05513).
T4 construct: purchased Invitrogen 9232
T4 sequence (Q05513 1-592): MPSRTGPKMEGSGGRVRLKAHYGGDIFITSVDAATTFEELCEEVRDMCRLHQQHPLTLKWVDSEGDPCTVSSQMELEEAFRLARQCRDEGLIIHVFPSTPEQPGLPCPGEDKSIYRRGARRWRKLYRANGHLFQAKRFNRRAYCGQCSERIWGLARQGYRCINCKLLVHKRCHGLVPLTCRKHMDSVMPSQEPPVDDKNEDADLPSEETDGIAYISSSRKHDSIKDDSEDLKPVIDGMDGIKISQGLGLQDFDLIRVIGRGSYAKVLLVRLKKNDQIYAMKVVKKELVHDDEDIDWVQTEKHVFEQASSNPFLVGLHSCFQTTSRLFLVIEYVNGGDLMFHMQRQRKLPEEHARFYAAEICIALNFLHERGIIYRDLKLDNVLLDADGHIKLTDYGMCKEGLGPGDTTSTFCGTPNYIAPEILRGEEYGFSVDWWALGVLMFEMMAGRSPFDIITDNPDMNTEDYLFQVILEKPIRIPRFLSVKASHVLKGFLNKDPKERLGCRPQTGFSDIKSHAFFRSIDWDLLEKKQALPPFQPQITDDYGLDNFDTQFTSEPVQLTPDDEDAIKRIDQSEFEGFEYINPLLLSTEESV
The following applies: enzyme 20 ng/ml, ATP 2.5 μM. As to the method:
as §2, §3, §4, §5

T3 sequence (Q04759 whole entry): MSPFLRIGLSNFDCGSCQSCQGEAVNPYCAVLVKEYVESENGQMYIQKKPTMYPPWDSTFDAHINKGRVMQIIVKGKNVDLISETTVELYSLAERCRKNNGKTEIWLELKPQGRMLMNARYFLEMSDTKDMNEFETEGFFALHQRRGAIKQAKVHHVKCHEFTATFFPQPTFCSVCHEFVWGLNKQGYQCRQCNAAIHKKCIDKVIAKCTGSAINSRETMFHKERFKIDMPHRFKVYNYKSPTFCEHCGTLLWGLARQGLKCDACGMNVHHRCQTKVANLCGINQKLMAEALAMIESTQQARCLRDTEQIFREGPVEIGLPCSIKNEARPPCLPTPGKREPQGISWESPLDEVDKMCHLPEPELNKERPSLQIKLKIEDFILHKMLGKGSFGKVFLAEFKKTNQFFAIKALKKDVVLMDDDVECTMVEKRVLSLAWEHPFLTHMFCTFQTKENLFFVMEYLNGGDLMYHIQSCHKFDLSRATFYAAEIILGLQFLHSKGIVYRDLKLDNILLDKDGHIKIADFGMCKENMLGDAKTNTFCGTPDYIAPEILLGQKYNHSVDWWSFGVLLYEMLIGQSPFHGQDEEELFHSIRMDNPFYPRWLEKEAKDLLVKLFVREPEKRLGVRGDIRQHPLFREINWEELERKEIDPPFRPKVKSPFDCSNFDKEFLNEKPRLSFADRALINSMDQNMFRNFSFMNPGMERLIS

The IC50 is the point on the concentration scale where inhibition reaches its midpoint. Consider `NC[C@H]1CC[C@H](C(=O)Nc2ccncc2)CC1` [Compound 19, Trans-4-aminomethyl-cyclohexanecarboxylic acid pyridin-4-ylamide], for which the IC50 on PKC epsilon (substrate […] 1 μM) was 5.12 µM; against PKC gamma (substrate […] 1 μM), over 100 µM; at PKC theta (substrate […] 1 μM) it was 7.35 µM; on PKC zeta (substrate […] 1 μM), 24.3 µM.
In the case of `NCc1ccc(-c2nc(-c3ccncc3)no2)cc1` [Compound 13, 4-(3-pyridin-4-yl-[1,2,4]oxadiazol-5-yl-benzylaminedihydrochloric acid salt], the IC50 on PKC epsilon (substrate […] 1 μM), against PKC gamma (substrate […] 1 μM), at PKC theta (substrate […] 1 μM) and against PKC zeta (substrate […] 1 μM) was over 100 µM throughout.
Turning to `CCC(N)c1ccc(C(=O)Nc2ccncc2)cc1` (centres unmarked) [Compound 24, 4-(1-amino-propyl)-N-pyridin-4-yl-benzamide dihydrochloric acid salt], the 50% inhibitory concentration (IC50) against PKC epsilon (substrate […] 1 μM) is 0.65 µM; against PKC gamma (substrate […] 1 μM), over 30 µM; against PKC theta (substrate […] 1 μM) it was 2.91 µM; against PKC zeta (substrate […] 1 μM) it was 25.4 µM.
“4-aminomethyl-2,5-dimethyl-N-pyridin-4-yl-benzamide dihydrochloric acid salt [Compound 39]”: the IC50 is 8.3 µM against PKC epsilon (substrate RFARKGSLRQKNV 1 μM), over 100 µM against PKC gamma (substrate RFARKGSLRQKNV 1 μM), 16.8 µM on PKC theta (substrate RFARKGSLRQKNV 1 μM) and over 100 µM against PKC zeta (substrate RFARKGSLRQKNV 1 μM).
Consider `O=C(Nc1ccncc1)c1ccc2c(c1)CCNC2` [Compound 32, 1,2,3,4-tetrahydro-isoquinoline-6-carboxylic acid pyridinedin-4-yl-amide dihydrochloric acid salt], for which the 50% inhibitory concentration (IC50) is 30.5 µM on PKC epsilon (substrate […] 1 μM), over 100 µM against PKC gamma (substrate […] 1 μM), 31.6 µM against PKC theta (substrate […] 1 μM) and over 100 µM on PKC zeta (substrate […] 1 μM).
With `CC(c1ccc(C(=O)Nc2ccncc2)cc1)N(C)C` (centres unmarked) [Compound 17], the IC50 at PKC epsilon (substrate […] 1 μM), at PKC gamma (substrate […] 1 μM), on PKC theta (substrate […] 1 μM) and on PKC zeta (substrate […] 1 μM) was over 100 µM each time.
As for `NCc1cccc(C(=O)Nc2ccncc2)c1` [Compound 9, 3-aminomethyl-N-pyridin-4-yl-benzamide dihydrochloric acid salt], the 50% inhibitory concentration (IC50) on PKC epsilon (substrate […] 1 μM), against PKC gamma (substrate […] 1 μM), on PKC theta (substrate […] 1 μM) and on PKC zeta (substrate […] 1 μM) was over 100 µM throughout.
`O=C(Nc1ccncc1)c1ccc(C2=NCCN2)cc1` [Compound 33, 4-(4,5-dihydro-1H-imidazol-2-yl)-N-pyridin-4-yl-benzamide]: the IC50 at PKC epsilon (substrate […] 1 μM) is 62 µM; against PKC gamma (substrate […] 1 μM) it was over 100 µM; at PKC theta (substrate […] 1 μM), 53.5 µM; against PKC zeta (substrate […] 1 μM), over 100 µM.
For `NC(c1ccccc1)c1ccc(C(=O)Nc2ccncc2)cc1` (centres unmarked) [Compound 35, 4-(1-amino-phenyl-methyl)-N-pyridin-4-yl-benzamide], the half-inhibitory concentration (IC50) against PKC epsilon (substrate […] 1 μM) is 8.04 µM; on PKC gamma (substrate […] 1 μM) it was over 100 µM; on PKC theta (substrate […] 1 μM) it was 11.3 µM; against PKC zeta (substrate […] 1 μM), over 100 µM.
As for `O=C(Nc1ccncc1)c1ccc(C2CCCN2)cc1` (centres unmarked) [Compound 30, N-pyridin-4-yl-4-pyrrolidin-2-yl-benzamide dihydrochloric acid salt], the half-maximal inhibitory concentration (IC50) at PKC epsilon (substrate […] 1 μM) was 9.8 µM; on PKC gamma (substrate […] 1 μM), over 100 µM; at PKC theta (substrate […] 1 μM) it was 17.2 µM; against PKC zeta (substrate […] 1 μM) it was over 100 µM.
Consider `NCCCCCC(=O)Nc1ccncc1` [Compound 1, 6-Amino-hexanoic acid pyridine-4-ylamide dihydrochloric acid salt], for which the IC50 on PKC epsilon (substrate […] 1 μM), on PKC gamma (substrate […] 1 μM), at PKC theta (substrate […] 1 μM) and at PKC zeta (substrate […] 1 μM) was over 100 µM each time.
Turning to `NC[C@H]1CC[C@H](C(=O)Nc2ccccc2)CC1` [Compound 3, Trans-4-aminomethyl-cyclohexanecarboxylic acid phenylamide hydrochloric acid salt], the IC50 against PKC epsilon (substrate […] 1 μM) is over 100 µM; against PKC gamma (substrate […] 1 μM), 90.5 µM; against PKC theta (substrate […] 1 μM), over 100 µM; at PKC zeta (substrate […] 1 μM), 40.3 µM.
For the compound `NC1CCCc2cc(C(=O)Nc3ccncc3)ccc21` (centres unmarked) [Compound 29], the IC50 on PKC epsilon (substrate […] 1 μM) was 6.1 µM; against PKC gamma (substrate […] 1 μM) it was over 100 µM; against PKC theta (substrate […] 1 μM), 13.7 µM; against PKC zeta (substrate […] 1 μM) it was over 100 µM.
As for `CC(C)(C)CC(N)c1ccc(C(=O)Nc2ccncc2)cc1` (centres unmarked) [Compound 25, 4-(1-amino-3,3-dimethyl-butyl)-N-pyridin-4-yl-benzamide dihydrochloric acid salt], the IC50 is 4.98 µM against PKC epsilon (substrate […] 1 μM), over 100 µM on PKC gamma (substrate […] 1 μM), 12.2 µM on PKC theta (substrate […] 1 μM) and over 100 µM against PKC zeta (substrate […] 1 μM).
As for `NC[C@H]1CC[C@H](C(=O)NCc2ccncc2)CC1` [Compound 5, Trans-4-aminomethyl-cyclohexanecarboxylic acid (pyridine-4-ylmethyl)-amide], the IC50 on PKC epsilon (substrate […] 1 μM), against PKC gamma (substrate […] 1 μM), against PKC theta (substrate […] 1 μM) and against PKC zeta (substrate […] 1 μM) was over 100 µM each time.
`NCc1ccc(S(=O)(=O)Nc2ccncc2)cc1` [Compound 10, 4-aminomethyl-N-pyridin-4-yl-benzenesulfonamide]: the concentration for half-maximal inhibition (IC50) against PKC epsilon (substrate […] 1 μM), against PKC gamma (substrate […] 1 μM), against PKC theta (substrate […] 1 μM) and at PKC zeta (substrate […] 1 μM) was over 100 µM each time.
Consider `CC(N)c1ccc(C(=O)Nc2ccncc2)c2ccccc12` (centres unmarked) [Compound 38, 4-(1-amino-ethyl)-naphthalene-1-carboxylic acid pyridinedin-4-ylamide dihydrochloric acid salt], for which the IC50 against PKC epsilon (substrate […] 1 μM) is 2.5 µM; against PKC gamma (substrate […] 1 μM), over 100 µM; on PKC theta (substrate […] 1 μM), 7.8 µM; against PKC zeta (substrate […] 1 μM) it was 6.4 µM.
`NCc1ccc(NCc2ccncc2)cc1` [Compound 11, (4-aminomethyl-phenyl)-pyridin-4-ylmethyl-amine dihydrochloric acid salt]: the half-inhibitory concentration (IC50) against PKC epsilon (substrate […] 1 μM), against PKC gamma (substrate […] 1 μM), against PKC theta (substrate […] 1 μM) and against PKC zeta (substrate […] 1 μM) was over 100 µM throughout.
Consider `NCc1ccc(C(=O)Nc2ccncc2)cc1` [Compound 20, 4-aminomethyl-N-pyridin-4-yl-benzamide dihydrochloric acid salt], for which the IC50 was 6.23 µM against PKC epsilon (substrate […] 1 μM), over 100 µM on PKC gamma (substrate […] 1 μM), 9.14 µM on PKC theta (substrate […] 1 μM) and 51.4 µM on PKC zeta (substrate […] 1 μM).
Consider `CC(=O)NCc1ccc(C(=O)Nc2ccncc2)cc1` [Compound 16], for which the IC50 at PKC epsilon (substrate […] 1 μM), on PKC gamma (substrate […] 1 μM), against PKC theta (substrate […] 1 μM) and at PKC zeta (substrate […] 1 μM) was over 100 µM in each case.
